Article PMC6013238, “Development of novel NEMO-binding domain mimetics for inhibiting IKK/NF-κB activation” (PLoS Biology, 2018)
“Also recorded” adds a separate entry of the source.

Assays:
[1] = tested on: phosphorylated IKK complex, IκBα and p65; test: Western blot of IKK/NF-κB signaling in Raw 264.7 cells (TNF-α or LPS); format: cell-based, mouse; details: 150 μM (S2A Fig: 0-150 μM), 30 min; TNF-α 10 ng/ml or LPS 1 μg/ml 10 min
Method: To determine whether the novel NBD mimetics target the NEMO-IKKβ interaction in vivo, co-immunoprecipitations were performed using extracts from Raw 264.7 macrophages (Fig 5A). […] No interaction between NEMO and TNF receptor-associated factor 2 (TRAF2) or IκBα was observed under these conditions. […] The levels of phosphorylated IKK complex, IκBα, and p65 in response to TNF-α and LPS were all reduced by SR12343 (Fig 5D & 5E). […] However, there were no changes in the levels of phospho-c-Jun N-terminal kinase (p-JNK), p-p38MAPK, total JNK, and p38MAPK by treatment with SR12343 (150 μM) in response to TNF-α or LPS stimulation (Fig 5G & 5H). […]
(A) Co-IP analysis detecting the IKKβ/NEMO interaction. […] NEMO-binding products were then analyzed for levels of IKKβ, IKKα, TRAF2, and IκBα (negative control), and levels of NEMO were used as a loading control (left panel). […] The levels of IKKβ-FLAG binding to GST-NEMO were determined by western blot analysis with GST-NEMO used as a loading control. […] Cell lysates were analyzed for activity of the IKK/NF-κB signaling pathway including activation of IKK complex, IκBα, and p65. […] Cell lysates were harvested and analyzed for activation of noncanonical NF-κB signaling, the processing of p100 to p52. […]

[2] = Hematological measures in acutely treated mice; format: in vivo, mouse; details: SR12343 30 mg/kg i.p. 30 min before LPS 10 mg/kg, 2 h; mean ± SD
Method: To determine their NF-κB inhibitory effects in vivo, SR12343 and SR12460 were tested in an acute model of LPS-induced systemic endotoxemia. C57BL/6J mice were pretreated with vehicle control, 8K-NBD peptide, or NBD mimetics at 10 mg/kg for 30 min, followed by LPS induction at 10 mg/kg (Fig 6B). Lung and liver were harvested 2–4 h post treatment for qRT-PCR analysis of NF-κB target genes. […] Despite lower plasma and tissue concentrations of SR12343 compared to SR12460, its inhibition of NF-κB/IKK in liver and lung were greater than that of SR12460 (Fig 6C). Similarly, acute treatment with SR12343 also affected the LPS-induced expression of NF-κB target genes at protein level. The extent of phosphorylation of IκBα and the levels of COX-2 were reduced in lung and liver tissues treated with SR12343 (Fig 6D and 6E). […] However, no significant differences in lung histopathology were observed. Finally, there was a slight reduction in the number of white blood cells and neutrophils in the SR12343-treated group (Table 2).
Nine mice (male; C57BL/6, 9–13 wk) were randomly divided into 3 groups with 3 mice in each group. Mice were injected i.p. with vehicle (DMSO:Tween80:H2O, 10:10:80) or small-molecule SR12343 (30 mg/kg) for 30 min and then injected i.p. with saline (1 ml/kg) or LPS (10 mg/kg in saline). After 2 h, mice were euthanized by CO2 asphyxiation prior to blood sampling via cardiac puncture. The blood from each mouse was put into 2 collection tubes with coagulant or anticoagulant heparin (approximately 0.6 mL each). The samples in the tubes coated with the anticoagulant heparin were hand-mixed several times and placed on wet ice for hematological analysis using an automatic hematology analyzer (Hemavet 950FS; Drew Scientific, Miami Lakes, FL). Samples in tubes containing no anticoagulant were allowed to clot before centrifugation and submission for serum biochemical analysis using the VetScan VS2 Analyzer with the Comprehensive Diagnostic Profile reagent rotor (Abaxis, Union City, CA). The ALT, AST, and […] activities in the serum were quantitated by a colorimetric, enzymatic method using the Clinical Chemistry Analyzer Cobas c311 (Roche Diagnostics, Risch-Rotkreuz, Switzerland) as per the manufacturer’s instructions.

With O=C(CNc1ccc(Cl)cn1)NCCc1cccc(Br)c1 [SR12343] the “Levels of phosphorylated IKK complex, IκBα and p65” value [1] was “inhibited phosphorylation of IKKα/β and p65 and prevented IκBα from degradation; also recorded: all reduced”, the Hematocrit [2] was 53.0 ± 1.5% and the Hemoglobin [2] was 15.3 ± 0.4 g/dL. For the same compound, the Mean corpuscular hemoglobin [2] was 14.8 ± 0.2 pg, the “Mean corpuscular hemoglobin concentration” value [2] was 28.9 ± 0.2 g/dL and the Mean corpuscular volume [2] was 51.2 ± 1.0 fL. The Mean platelet volume [2] was 5.7 ± 0.8 fL, the Platelets [2] was 170.7 ± 64.0 K/μL and the Red blood cells [2] was 10.4 ± 0.3 M/μL. The “Red cell distribution width” value [2] was 15.0 ± 0.2% and the White blood cells [2] was 7.4 ± 3.3 K/μL.
